Measurements from PMC4290623, “Homopharma: A new concept for exploring the molecular binding mechanisms and drug repurposing” (BMC Genomics, 2014).

Key:
Experiment in all cases: In vitro enzymatic profiling, HotSpot assay platform
Format in all cases: biochemical
FGFR1 = molecular target: T1, FGFR1 (Homo sapiens, UniProt P11362); details: inhibitor 10 μM, ATP 10 μM; for IC50: duplicate, read-out: IC50 (bioactivity in the kinome picture)
T1 construct: purchased Reaction Biology Corporation
Protocol: (§1) In vitro enzymatic profiling of the 32 member kinase panel was performed at Reaction Biology Corporation (http://www.reactionbiology.com, Malvern, PA) using the "HotSpot" assay platform. Each kinase activity assay was performed in duplicate with inhibitor concentration of 10 μM and an ATP concentration of 10 μM.

LIMK1 = molecular target: T2, LIMK1 (Homo sapiens, UniProt P53667); details: inhibitor 10 μM, ATP 10 μM
T2 construct: purchased Reaction Biology Corporation
Protocol: as §1

CHEK2 = molecular target: T3, CHEK2 (Homo sapiens, UniProt O96017); details: inhibitor 10 μM, ATP 10 μM
T3 construct: purchased Reaction Biology Corporation
Protocol: as §1

CSNK2A1 = molecular target: T4, CSNK2A1 (Homo sapiens, UniProt P68400); details: inhibitor 10 μM, ATP 10 μM, duplicate, read-out: IC50 (bioactivity in the kinome picture)
T4 construct: purchased Reaction Biology Corporation
Protocol: In vitro enzymatic profiling of the 32 member kinase panel was performed at Reaction Biology Corporation (http://www.reactionbiology.com, Malvern, PA) using the "HotSpot" assay platform. […]

IGF1R = molecular target: T5, IGF1R (Homo sapiens, UniProt P08069); details: inhibitor 10 μM, ATP 10 μM; for IC50: duplicate, read-out: IC50 (bioactivity in the kinome picture)
T5 construct: purchased Reaction Biology Corporation
Protocol: as §1

INSR = molecular target: T6, INSR (Homo sapiens, UniProt P06213); details: inhibitor 10 μM, ATP 10 μM, duplicate, read-out: IC50 (bioactivity in the kinome picture)
T6 construct: purchased Reaction Biology Corporation
Protocol: as §1

SRC = molecular target: T7, SRC (Homo sapiens, UniProt P12931); details: inhibitor 10 μM, ATP 10 μM
T7 construct: purchased Reaction Biology Corporation
Protocol: as §1

EGFR = molecular target: T8, EGFR (Homo sapiens, UniProt P00533); details: inhibitor 10 μM, ATP 10 μM
T8 construct: purchased Reaction Biology Corporation
Protocol: as §1

MAPK3 = molecular target: T9, MAPK3 (Homo sapiens, UniProt P27361); details: inhibitor 10 μM, ATP 10 μM
T9 construct: purchased Reaction Biology Corporation
Protocol: as §1

AKT2 = molecular target: T10, AKT2 (Homo sapiens, UniProt P31751); details: inhibitor 10 μM, ATP 10 μM
T10 construct: purchased Reaction Biology Corporation
Protocol: as §1

KIT = molecular target: T11, KIT (Homo sapiens, UniProt P10721); details: inhibitor 10 μM, ATP 10 μM
T11 construct: purchased Reaction Biology Corporation
Protocol: as §1

LCK = molecular target: T12, LCK (Homo sapiens, UniProt P06239); details: inhibitor 10 μM, ATP 10 μM
T12 construct: purchased Reaction Biology Corporation
Protocol: as §1

CAMK2G = molecular target: T13, CAMK2G (Homo sapiens, UniProt Q13555); details: inhibitor 10 μM, ATP 10 μM, duplicate, read-out: IC50 (bioactivity in the kinome picture)
T13 construct: purchased Reaction Biology Corporation
Protocol: In vitro enzymatic profiling of the 32 member kinase panel was performed at Reaction Biology Corporation (http://www.reactionbiology.com, Malvern, PA) using the "HotSpot" assay platform. Each kinase activity assay was performed in duplicate with inhibitor concentration of 10 μM and an ATP concentration of 10 μM. […] Another compound JMY84 could also be used as drug candidates of colorectal cancer due to its effects on CHEK2, LIMK1, and FGFR1 (Figures 5D and 5E).

T1 sequence (P11362 22-822): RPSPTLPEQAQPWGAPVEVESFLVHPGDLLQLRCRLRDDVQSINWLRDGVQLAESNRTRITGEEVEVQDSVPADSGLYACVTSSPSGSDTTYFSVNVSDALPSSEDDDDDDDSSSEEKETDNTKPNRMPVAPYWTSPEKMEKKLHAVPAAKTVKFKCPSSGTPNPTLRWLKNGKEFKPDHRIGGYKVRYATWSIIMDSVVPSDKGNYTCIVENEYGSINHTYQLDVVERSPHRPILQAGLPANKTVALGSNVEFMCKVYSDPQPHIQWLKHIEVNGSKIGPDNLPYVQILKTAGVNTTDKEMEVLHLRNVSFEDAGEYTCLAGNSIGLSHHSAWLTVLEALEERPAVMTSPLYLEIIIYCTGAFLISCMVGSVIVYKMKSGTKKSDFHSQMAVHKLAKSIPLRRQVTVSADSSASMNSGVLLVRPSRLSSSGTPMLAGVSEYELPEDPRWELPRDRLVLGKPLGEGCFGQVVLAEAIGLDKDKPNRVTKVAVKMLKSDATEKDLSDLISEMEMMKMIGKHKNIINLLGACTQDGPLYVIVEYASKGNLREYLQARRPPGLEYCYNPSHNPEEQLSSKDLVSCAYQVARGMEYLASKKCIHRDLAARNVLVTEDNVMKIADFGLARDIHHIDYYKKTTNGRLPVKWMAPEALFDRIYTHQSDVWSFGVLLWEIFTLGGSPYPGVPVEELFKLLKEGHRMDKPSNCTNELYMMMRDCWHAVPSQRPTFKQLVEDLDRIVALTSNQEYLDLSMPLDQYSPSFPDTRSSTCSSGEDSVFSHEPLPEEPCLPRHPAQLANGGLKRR
T5 sequence (P08069 31-1367): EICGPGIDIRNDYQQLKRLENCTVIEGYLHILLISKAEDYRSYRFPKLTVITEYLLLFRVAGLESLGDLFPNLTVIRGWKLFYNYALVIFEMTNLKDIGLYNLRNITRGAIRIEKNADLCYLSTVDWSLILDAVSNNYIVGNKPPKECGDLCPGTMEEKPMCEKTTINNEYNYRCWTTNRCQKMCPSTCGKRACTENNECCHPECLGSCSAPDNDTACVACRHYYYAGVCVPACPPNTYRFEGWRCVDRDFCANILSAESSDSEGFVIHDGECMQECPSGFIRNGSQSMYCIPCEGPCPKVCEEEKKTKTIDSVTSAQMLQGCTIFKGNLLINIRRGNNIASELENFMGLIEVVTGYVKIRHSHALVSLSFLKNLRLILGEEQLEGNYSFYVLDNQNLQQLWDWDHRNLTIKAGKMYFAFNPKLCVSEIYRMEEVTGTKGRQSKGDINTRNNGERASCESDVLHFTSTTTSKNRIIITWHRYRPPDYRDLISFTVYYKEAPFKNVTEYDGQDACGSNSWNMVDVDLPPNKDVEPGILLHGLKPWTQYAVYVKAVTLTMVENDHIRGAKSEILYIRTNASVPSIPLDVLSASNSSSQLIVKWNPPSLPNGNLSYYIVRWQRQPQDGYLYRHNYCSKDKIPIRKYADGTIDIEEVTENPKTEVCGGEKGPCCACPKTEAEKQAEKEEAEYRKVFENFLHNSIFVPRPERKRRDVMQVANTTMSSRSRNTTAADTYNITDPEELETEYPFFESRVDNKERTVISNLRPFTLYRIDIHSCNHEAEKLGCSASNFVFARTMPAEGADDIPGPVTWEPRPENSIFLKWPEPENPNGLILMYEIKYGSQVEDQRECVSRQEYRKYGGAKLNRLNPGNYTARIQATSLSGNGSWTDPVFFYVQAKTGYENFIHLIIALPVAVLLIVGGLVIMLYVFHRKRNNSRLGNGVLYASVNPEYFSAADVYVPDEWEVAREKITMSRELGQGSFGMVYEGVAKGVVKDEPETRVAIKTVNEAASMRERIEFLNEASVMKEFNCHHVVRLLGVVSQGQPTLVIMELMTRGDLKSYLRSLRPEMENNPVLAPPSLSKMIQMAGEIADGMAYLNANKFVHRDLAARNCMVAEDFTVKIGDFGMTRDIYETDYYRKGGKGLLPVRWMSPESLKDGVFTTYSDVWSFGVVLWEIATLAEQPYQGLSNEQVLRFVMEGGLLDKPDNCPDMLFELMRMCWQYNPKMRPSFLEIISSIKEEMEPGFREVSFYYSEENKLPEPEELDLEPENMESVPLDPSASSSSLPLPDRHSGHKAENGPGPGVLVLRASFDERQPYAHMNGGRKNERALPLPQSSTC
T7 sequence (P12931 whole entry): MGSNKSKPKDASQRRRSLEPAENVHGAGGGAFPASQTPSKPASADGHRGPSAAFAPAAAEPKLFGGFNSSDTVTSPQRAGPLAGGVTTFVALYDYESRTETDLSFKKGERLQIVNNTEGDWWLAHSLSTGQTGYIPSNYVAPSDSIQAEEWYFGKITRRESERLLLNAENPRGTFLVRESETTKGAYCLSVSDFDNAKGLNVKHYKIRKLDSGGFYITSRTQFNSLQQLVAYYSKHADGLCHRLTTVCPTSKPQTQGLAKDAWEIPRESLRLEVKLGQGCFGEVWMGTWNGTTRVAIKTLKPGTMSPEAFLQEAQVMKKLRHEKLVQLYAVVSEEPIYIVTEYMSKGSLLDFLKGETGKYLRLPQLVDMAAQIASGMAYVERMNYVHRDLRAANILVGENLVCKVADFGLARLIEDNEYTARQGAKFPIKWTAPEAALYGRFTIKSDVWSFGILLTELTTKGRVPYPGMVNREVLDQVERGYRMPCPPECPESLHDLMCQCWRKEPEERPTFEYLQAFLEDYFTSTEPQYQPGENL
T9 sequence (P27361 whole entry): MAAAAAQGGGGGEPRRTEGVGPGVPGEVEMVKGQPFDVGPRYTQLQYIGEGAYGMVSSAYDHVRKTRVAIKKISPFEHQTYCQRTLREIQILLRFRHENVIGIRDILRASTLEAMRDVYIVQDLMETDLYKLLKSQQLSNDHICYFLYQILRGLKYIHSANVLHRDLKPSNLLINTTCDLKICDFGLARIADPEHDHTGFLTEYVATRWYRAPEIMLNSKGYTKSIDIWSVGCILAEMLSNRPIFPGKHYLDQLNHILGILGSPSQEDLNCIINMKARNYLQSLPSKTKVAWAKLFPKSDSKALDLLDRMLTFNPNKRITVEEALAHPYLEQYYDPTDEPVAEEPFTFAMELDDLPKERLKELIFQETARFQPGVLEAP
T3 sequence (O96017 whole entry): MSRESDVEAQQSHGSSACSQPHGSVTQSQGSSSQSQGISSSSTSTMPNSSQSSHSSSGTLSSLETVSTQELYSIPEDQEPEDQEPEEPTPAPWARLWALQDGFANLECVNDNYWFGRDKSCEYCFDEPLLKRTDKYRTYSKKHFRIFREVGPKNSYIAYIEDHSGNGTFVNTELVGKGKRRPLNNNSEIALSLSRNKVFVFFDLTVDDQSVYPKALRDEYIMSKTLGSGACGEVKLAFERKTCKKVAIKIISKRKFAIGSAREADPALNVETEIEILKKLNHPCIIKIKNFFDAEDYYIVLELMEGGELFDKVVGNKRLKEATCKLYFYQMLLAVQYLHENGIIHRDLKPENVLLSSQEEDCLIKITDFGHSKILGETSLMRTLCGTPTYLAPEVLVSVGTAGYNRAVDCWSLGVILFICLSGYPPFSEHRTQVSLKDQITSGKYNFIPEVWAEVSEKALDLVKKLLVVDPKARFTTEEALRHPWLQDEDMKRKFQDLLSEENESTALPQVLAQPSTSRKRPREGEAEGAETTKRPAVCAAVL
T10 sequence (P31751 whole entry): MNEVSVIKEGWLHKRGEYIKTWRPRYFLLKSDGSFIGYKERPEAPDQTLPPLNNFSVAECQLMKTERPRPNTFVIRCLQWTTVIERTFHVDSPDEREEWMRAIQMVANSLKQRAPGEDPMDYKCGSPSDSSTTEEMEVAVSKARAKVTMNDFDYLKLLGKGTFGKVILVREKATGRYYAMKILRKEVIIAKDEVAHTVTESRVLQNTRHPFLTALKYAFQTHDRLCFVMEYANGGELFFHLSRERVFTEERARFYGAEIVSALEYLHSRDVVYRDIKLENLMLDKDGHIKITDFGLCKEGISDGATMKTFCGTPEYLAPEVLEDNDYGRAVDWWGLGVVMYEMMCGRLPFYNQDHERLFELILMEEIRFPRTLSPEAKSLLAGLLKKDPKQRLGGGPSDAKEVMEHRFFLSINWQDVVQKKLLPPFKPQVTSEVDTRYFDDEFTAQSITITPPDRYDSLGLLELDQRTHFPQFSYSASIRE
T4 sequence (P68400 whole entry): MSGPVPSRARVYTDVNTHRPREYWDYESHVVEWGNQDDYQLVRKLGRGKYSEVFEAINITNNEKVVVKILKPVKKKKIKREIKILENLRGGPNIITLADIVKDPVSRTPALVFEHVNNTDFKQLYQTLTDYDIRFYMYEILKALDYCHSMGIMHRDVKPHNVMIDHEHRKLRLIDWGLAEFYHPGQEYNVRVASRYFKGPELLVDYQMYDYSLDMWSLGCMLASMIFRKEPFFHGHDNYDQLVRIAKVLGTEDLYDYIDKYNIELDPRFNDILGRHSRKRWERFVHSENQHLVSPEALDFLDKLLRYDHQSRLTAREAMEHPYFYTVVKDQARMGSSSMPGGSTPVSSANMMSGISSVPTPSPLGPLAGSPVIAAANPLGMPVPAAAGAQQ
T13 sequence (Q13555 whole entry): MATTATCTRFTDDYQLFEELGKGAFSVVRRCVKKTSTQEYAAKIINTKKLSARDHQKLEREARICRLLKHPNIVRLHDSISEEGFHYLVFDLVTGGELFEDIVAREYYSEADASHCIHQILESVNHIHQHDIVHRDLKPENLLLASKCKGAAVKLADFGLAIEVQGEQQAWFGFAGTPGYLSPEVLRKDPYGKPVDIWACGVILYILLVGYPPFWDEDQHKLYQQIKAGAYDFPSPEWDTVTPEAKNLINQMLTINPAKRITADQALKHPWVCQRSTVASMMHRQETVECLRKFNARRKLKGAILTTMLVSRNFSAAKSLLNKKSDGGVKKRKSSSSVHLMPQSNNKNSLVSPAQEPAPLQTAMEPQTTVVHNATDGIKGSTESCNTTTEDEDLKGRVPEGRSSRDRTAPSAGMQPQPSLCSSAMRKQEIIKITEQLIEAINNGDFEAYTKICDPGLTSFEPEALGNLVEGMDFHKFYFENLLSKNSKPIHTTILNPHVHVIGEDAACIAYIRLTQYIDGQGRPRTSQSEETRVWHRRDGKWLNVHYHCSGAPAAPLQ

With `O=c1c(O)c(-c2ccc(OC3OC(CO)C(O)[C@@H](O)C3O)c(O)c2)oc2cc(O)cc(O)c12` (stereo partly drawn) [JMY84] the “effect on kinase (in words)” value (FGFR1) was “effects”, the “effect on kinase (in words)” value (LIMK1) was “effects” and the “effect on kinase (in words)” value (CHEK2) was “effects”. The IC50 (CSNK2A1) was ~1 µM.

Compound `O=c1cc(-c2ccccc2)oc2cc(O)c(O)c(O)c12` [JMY51] has an IC50 (FGFR1) of ~3 µM, an IC50 (IGF1R) of ~1 µM and an IC50 (INSR) of ~2 µM.

With `O=C(Oc1cc(O)c2c(c1)OC(c1ccc(O)c(O)c1)C(O)C2)c1cc(O)c(O)c(O)c1` (stereo not drawn) [JMY65] the “inhibitory activity (in words)” value (SRC) was “inhibitory activities”, the IC50 (SRC; duplicate, read-out: IC50 (bioactivity in the kinome picture)) was ~0.5 µM and the “inhibitory effect (in words)” value (EGFR) was “inhibitory effects”. The “inhibitory effect (in words)” value (MAPK3) was “inhibitory effects”, the “inhibitory effect (in words)” value (IGF1R) was “inhibitory effects” and the IC50 (IGF1R) was ~0.1 µM. For the same compound, the “inhibitory effect (in words)” value (AKT2) was “inhibitory effects”, the “inhibitory activity (in words)” value (KIT) was “inhibitory activities” and the “inhibitory activity (in words)” value (LCK) was “inhibitory activities”.

For `O=c1c(O)c(-c2ccc(O)c(O)c2)oc2cc(O)cc(O)c12` [Quercetin, quercetin, reference compound], the IC50 (FGFR1) was ~1 µM and the IC50 (CAMK2G) was ~1 µM.
